Measured values taken from ChEMBL document CHEMBL4316584, “All that glitters is not gold: Panning cytotoxic natural products and derivatives with a fused tricyclic backbone by the estimation of their leadlikeness for cancer treatment” (Eur J Med Chem, 2019).

Key:
Format in all cases: functional, cell-based
HL-60 [1] = assay: Cytotoxicity against human HL60 cells after 48 hrs by MTS assay; conditions: HL-60, 48 h
MCF7 = assay: Cytotoxicity against human MCF7 cells after 48 hrs by MTT assay; conditions: MCF7, 48 h
KB = assay: Cytotoxicity against human KB cells after 48 hrs by MTT assay
K562 = assay: Cytotoxicity against human K562 cells after 48 hrs by MTT assay; conditions: K562, 48 h
HepG2 = assay: Cytotoxicity against human HepG2 cells after 48 hrs by MTT assay; conditions: HepG2, 48 h
A549 = assay: Cytotoxicity against human A549 cells after 48 hrs by MTT assay; conditions: Homo sapiens, A549, 48 h
HL-60 [2] = assay: Cytotoxicity against human HL60 cells after 48 hrs by MTT assay; conditions: HL-60, 48 h
MDA-MB-231 = assay: Cytotoxicity against human MDA-MB-231 cells after 48 hrs by MTT assay; conditions: MDA-MB-231, 48 h

In the case of `c1ccc2c(c1)ncn2CCCn1c2ccccc2c2ccccc21`, the IC50 (HL-60 [1]) is reported as 7.91 µM.
`COc1cc(O)c(C(CO)C(O)CO)c2oc3cccc(O)c3c(=O)c12` (stereo unspecified) gave an IC50 (MCF7) of 9.7 µM.
Work on `COc1cc2oc3cc(O)c(OC)c(CC=C(C)C)c3c(=O)c2c(O)c1C/C=C(/C)CO` yielded an IC50 (KB) of 15.5 µM.
With `C#CCOc1cc(O)c2c(c1)C(=O)c1cc(C)cc(O)c1C2=O` the IC50 (MCF7) was 20 µM.
In the case of `CCn1c2c(c3ccccc31)CCC(CN1CCOCC1)C2=O` (stereo unspecified), the IC50 (K562) is reported as 13.8 µM.
`CCn1c2ccccc2c2cc(C3=NCCc4c3[nH]c3ccccc43)ccc21` gave an IC50 (HepG2) of 2.3 µM.
`CC(C)=CCC/C(C)=C/Cc1c(O)c(O)cc2oc3cc(O)c(CC=C(C)C)c(O)c3c(=O)c12` [NORCOWANIN] gave an IC50 (KB) of 10.4 µM.
With `CCCCSC1=C(SCCCC)C(=O)c2c(O)c3c(c(O)c2C1=O)C[C@](C)(O)[C@H](O)[C@H]3O` the IC50 (MCF7) was 2.45 µM.
`COc1cc(-c2nc(/C=C/C(=O)c3ccc(N)cc3)cc3c2[nH]c2ccccc23)cc(OC)c1OC` gave an IC50 (A549) of 11.8 µM and an IC50 (MCF7) of 14.6 µM.
`COC(=O)c1cccc2oc3cc(CCO)cc(O)c3c(=O)c12` showed an IC50 (MCF7) of 4.6 µM.
With `COC1=CC(=O)C[C@@]2(OC)Oc3ccc(O)cc3C[C@@]12O` the IC50 (HL-60 [2]) was 10.6 µM.
Work on `Nc1ccc(C(=O)/C=C/c2cc3c([nH]c4ccccc43)c(-c3ccc(F)c(F)c3)n2)cc1` yielded an IC50 (MCF7) of 10.5 µM.
With `CCCCNC1=CC(=O)c2c(O)c3c(c(O)c2C1=O)C[C@](C)(O)[C@H](O)[C@H]3O` the IC50 (MCF7) was 1.08 µM.
`CNC1=CC(=O)c2c(O)c3c(c(O)c2C1=O)C[C@](C)(O)[C@H](O)[C@H]3O` gave an IC50 (MCF7) of 3.58 µM.
In the case of `COc1ccc2oc3ccccc3c(=O)c2c1O`, the IC50 (MCF7) is reported as 16.5 µM.
`CC(C)=CCc1c(O)cc2oc3ccccc3c(=O)c2c1O` showed an IC50 (HepG2) of 9.81 µM.
Work on `C=C[C@@]1(C)C=C2[C@@H](O[C@@H]3O[C@H](C)[C@H](O)[C@H](O)[C@H]3O)C[C@@H]3C(C)(C)[C@H](O[C@@H]4O[C@@H](C)[C@H](O)[C@@H](O)[C@H]4O)CC[C@@]3(C)[C@@H]2CC1` yielded an IC50 (MCF7) of 10.2 µM.
In the case of `CCN(CC)CCOc1cc(O)c2c(c1)C(=O)c1cc(C)cc(O)c1C2=O`, the IC50 (HepG2) is reported as 5.64 µM.
In the case of `C=C[C@@]1(C)C=C2[C@@H](O[C@@H]3O[C@H](C)[C@H](O)[C@H](O)[C@H]3O)C[C@@H]3C(C)(C)[C@H](O[C@@H]4O[C@@H](C)[C@H](O)[C@@H](O)[C@H]4O[C@H]4O[C@H](CO)[C@@H](O)[C@H](O)[C@H]4O)CC[C@@]3(C)[C@@H]2CC1`, the IC50 (MCF7) is reported as 5.6 µM.
`COc1ccc(CNC2=CC(=O)c3c(O)c4c(c(O)c3C2=O)C[C@](C)(O)[C@H](O)[C@H]4O)cc1` showed an IC50 (MCF7) of 9.17 µM.
Compound `COC1=CC(=O)C[C@@]2(OC)Oc3ccccc3C[C@@]12O` has an IC50 (HL-60 [2]) of 4.08 µM.
`CC(C)c1cc2c(cc1O)[C@@]1(C)CCCC(C)(C)[C@@H]1CC2=O` [SUGIOL] showed an IC50 (K562) of 6.7 µM.
`CCOP(=O)(OCC)C(C)(CCc1ccccc1)NC(=O)c1cc(O)c2c(c1)C(=O)c1cccc(O)c1C2=O` (stereo unspecified) was tested, and the IC50 (HepG2) was 8.82 µM.
For `C[C@]1(O)Cc2c(O)c3c(c(O)c2C[C@H]1O)C(=O)C=C(N1CCC(c2ccccc2)CC1)C3=O`, the IC50 (HepG2) was 11.8 µM.
`Cc1cc2ncn(CCCCCn3c4ccccc4c4ccccc43)c2cc1C` showed an IC50 (HL-60 [1]) of 14.7 µM.
`C[C@]1(O)Cc2c(O)c3c(c(O)c2[C@H](O)[C@H]1O)C(=O)C(SCCO)=C(SCCO)C3=O` showed an IC50 (MCF7) of 14.4 µM.
`N#CC1=C(N)Oc2c(ccc3ccccc23)C1c1ccc([N+](=O)[O-])cc1` (stereo unspecified) gave an IC50 (KB) of 20 µM.
Compound `N#CC1=C(N)Oc2ccc3ccccc3c2C1c1ccc(Br)cc1` (stereo unspecified) has an IC50 (MDA-MB-231) of 6.1 µM.
`O=c1c2cc(O)ccc2oc2cc(O)cc(O)c12` showed an IC50 (HepG2) of 18.3 µM.
With `O=c1c2ccccc2oc2cc(O)cc(O)c12` the IC50 (HepG2) was 19.5 µM.
In the case of `COc1cc(C(=O)/C=C/c2cc3c([nH]c4ccccc43)c(-c3ccc(F)c(F)c3)n2)cc(OC)c1OC`, the IC50 (MCF7) is reported as 8.7 µM.
`COc1ccc(C(=O)/C=C/c2cc3c([nH]c4ccccc43)c(-c3cc(OC)c(OC)c(OC)c3)n2)cc1` gave an IC50 (A549) of 9.61 µM.
For `C[C@]1(O)Cc2c(O)c3c(c(O)c2C[C@H]1O)C(=O)C=C(NCc1ccccc1)C3=O`, the IC50 (HepG2) was 13.4 µM.
`CC(CO)c1cc(O)c2c(c1)[C@@H](O)C[C@H]1C(C)(C)CCC[C@]1(O)C2` (stereo partly specified) was tested, and the IC50 (MCF7) was 15.8 µM.
With `CC(C)c1cc2c(cc1O)[C@@]1(C)C[C@H](O)CC(C)(C)[C@@H]1CC2` the IC50 (HL-60 [2]) was 17 µM.
`Cc1cc(O)c2c(c1)C(=O)c1cc(OCCN(C)C)cc(O)c1C2=O` was tested, and the IC50 (MCF7) was 4.5 µM.
`CC(=O)Oc1cc(OC(C)=O)c2c(c1)C(=O)c1cc(C)cc(OC(C)=O)c1C2=O` [EMODIN TRIACETATE] showed an IC50 (MDA-MB-231) of 2.14 µM.
Work on `COc1cc(O)c2c(c1O)C(=O)C1=C(C[C@@H](O)[C@@](C)(O)C1)C2=O` yielded an IC50 (HepG2) of 9.99 µM and an IC50 (MCF7) of 2.69 µM.
With `CN(C)CCNC1=CC(=O)c2c(O)c3c(c(O)c2C1=O)C[C@](C)(O)[C@H](O)C3` the IC50 (HepG2) was 2.26 µM.
Compound `Nc1ccc(C(=O)/C=C/c2cc3c([nH]c4ccccc43)c(-c3ccc(C(F)(F)F)cc3)n2)cc1` has an IC50 (A549) of 2.95 µM.
For `CN(Cc1ccccc1)CC1CCc2c(n(C)c3ccccc23)C1=O` (stereo unspecified), the IC50 (A549) was 14.1 µM.
Work on `COc1c(O)cc2oc3cc(O)c(C/C=C(/C)CO)c(O)c3c(=O)c2c1C/C=C(\C)CCC=C(C)C` [COWANOL] yielded an IC50 (KB) of 12 µM.
`O=C1c2cccc(O)c2C(=O)c2c(O)cc(Cn3ccc(=O)[nH]c3=O)cc21` showed an IC50 (HepG2) of 3.9 µM.
Compound `CC(C)=CCC/C(C)=C/COc1cc(O)c2c(c1)C(=O)c1cc(C)cc(O)c1C2=O` has an IC50 (HepG2) of 15 µM.
